# From PMC10178127, “Immunomodulatory Effects of the Pea Defensin Psd1 in the Caco-2/Immune Cells Co-Culture upon Candida albicans Infection” (International Journal of Molecular Sciences, 2023)
# System: CD14+ blood monocytes
# Assay: Multiplex xMAP cytokine production, direct stimulation of monocytes
# Format: cell-based, human
# Conditions: 24 h
# Description: Primary peripheral blood mononuclear cells (PBMCs) collected from healthy donors were purchased from American Type Culture Collection (ATCC PCS-800-011). Primary CD14^+ blood monocytes were isolated from PBMCs by adherence according to standard technique. Monocyte-derived mature dendritic cells (moDCs) were obtained from CD14^+ blood monocytes according to the previously reported protocol. Briefly, blood monocytes were incubated in a complete RPMI-1640 medium (Capricorn Scientific, Ebsdorfergrund, Germany), containing 10% fetal bovine serum (FBS, Capricorn Scientific, Ebsdorfergrund, Germany), 1× antibiotic-antimycotic solution (Invitrogen, Waltham, MA, USA), 800 U/mL rhGM-CSF (Sci-Store, Moscow, Russia) and 500 U/mL rhIL-4 (Sci-Store) for 3 days in CellXpert C170i CO2-incubator (Eppendorf, Hamburg, Germany). Fresh complete RPMI-1640 medium with rhGM-CSF and rhIL-4 was added to the culture on day 3. On day 5, fresh complete RPMI-1640 containing 100 U/mL rhTNF-α (Sigma-Aldrich, St. Louis, MO, USA) as well as 800 U/mL rhGM-CSF and 500 U/mL rhIL-4 was added and the culture was incubated for another 4 days until full maturation.
# Monocytes and moDCs were seeded into the wells of 48- and 24-well plates in the complete RPMI-1640 medium supplemented with 10% human AB serum (HABS, Capricorn Scientific) without antibiotics 24 h prior to the experiment, and kept in a humidified CO2-incubator (5% CO2, 37 °C). After 24 h, the medium in the wells of the 48-well plate was replaced by fresh complete RPMI-1640 medium with 10% HABS, supplemented with 2 µM of Psd1 for the sample wells or fresh medium alone for the control wells. Medium in the wells of the 24-well plate was replaced by fresh complete RPMI-1640 medium with 10% human serum without antibiotics. Then, Millicell inserts with Caco-2 monolayers with TEER > 400 Ωcm^2 were placed into the wells of the 24-well plate, containing monocytes or moDCs. Wells with Millicell inserts with Caco-2 monolayers without immune cells were used as control wells. Medium in apical chambers of Millicell inserts was replaced by fresh complete RPMI-1640 with 10% human serum medium containing Psd1 at the final concentration of 2 µM or Candida albicans at the concentration of 5 × 10^4 cells/mL or yeast cells together with the pea defensin at the same concentration. Fresh complete RPMI-1640 medium only with 10% human serum and without antibiotics was used in control wells. Plates were kept in CO2-incubator (5% CO2, 37 °C) for another 24 h. Culture supernatants from the wells of the 48-well plate and basolateral chambers of the 24-well plate were collected and stored at −70 °C degrees less than one month prior to the analytes assessment.
# The following 48 analytes were measured at a protein level by multiplex xMAP technology using the MILLIPLEX Human Cytokine/Chemokine/Growth Factor Panel A kit (HCYTA-60K-PX48, Merck, Darmstadt, Germany): sCD40L, EGF, Eotaxin-1/CCL11, FGF-2/FGF-basic, Flt-3 ligand, Fractalkine/CX3CL1, G-CSF, GM-CSF, GROα/CXCL1, IFNα2, IFNγ, IL-1α, IL-1β, IL-1RA, IL-2, IL-3, IL-4, IL-5, IL-6, IL-7, IL-8/CXCL8, IL-9, IL-10, IL-12(p40), IL-12(p70), IL-13, IL-15, IL-17A/CTLA8, IL-17E/IL-25, IL-17F, IL-18, IL-22, IL-27, IP-10/CXCL10, MCP-1/CCL2, MCP-3/CCL7, M-CSF, MDC/CCL22, MIG/CXCL9, MIP-1α/CCL3, MIP-1β/CCL4, PDGF-AA, PDGF-AB/BB, RANTES/CCL5, TGFα, TNFα, TNFβ, and VEGF-A. Multiplex-based assay read-out was performed using the MAGPIX system (Merck) with the xPONENT 4.2 software (Merck) in accordance with the manufacturer’s instruction with overnight incubation of the samples with primary antibodies. A final analysis was carried out with the MILLIPLEX Analyst v5.1 software (Merck). Measurements were performed twice for each sample. Release of the analytes in control and experimental samples was compared with an unpaired two-sample t-test using GraphPad Prism v.8.0.1 (GraphPad Software, Inc., San Diego, CA, USA). The p values ≤ 0.05 were considered significant.
substance,measurement,setting,value
"Psd1: pea defensin from Pisum sativum (UNIPROT P81929), recombinant peptide overexpressed in Escherichia coli (KTCEHLADTYRGVCFTNASCDDHCKNKAHLISGTCHNWKCFCTQNC; UniProt P81929 1-46, looked up)",EGF level,"Mono+Psd1, 2 µM, supernatant",8.15 pg/mL
same,Eotaxin level,"Mono+Psd1, 2 µM, supernatant",<3.52↓ pg/ml
same,FGF-2 level,"Mono+Psd1, 2 µM, supernatant",41.38 pg/mL
same,FLT-3L level,"Mono+Psd1, 2 µM, supernatant",0.65 pg/mL
same,Fractalkine level,"Mono+Psd1, 2 µM, supernatant",<17.82↓ pg/ml
same,G-CSF level,"Mono+Psd1, 2 µM, supernatant",52.17 pg/mL
same,GM-CSF level,"Mono+Psd1, 2 µM, supernatant",12.61 pg/mL
same,GROa level,"Mono+Psd1, 2 µM, supernatant",1254 pg/mL
same,IFNa2 level,"Mono+Psd1, 2 µM, supernatant",12.78 pg/mL
same,IFNg level,"Mono+Psd1, 2 µM, supernatant",<2.23↓ pg/ml
same,IL-1RA level,"Mono+Psd1, 2 µM, supernatant",4.01 pg/mL
same,IL-1a level,"Mono+Psd1, 2 µM, supernatant",14.17 pg/mL
same,IL-1b level,"Mono+Psd1, 2 µM, supernatant",<2.26↓ pg/ml
same,IL-2 level,"Mono+Psd1, 2 µM, supernatant",1.12 pg/mL
same,IL-3 level,"Mono+Psd1, 2 µM, supernatant",<0.60↓ pg/ml
same,IL-4 level,"Mono+Psd1, 2 µM, supernatant",<1.14↓ pg/ml
same,IL-5 level,"Mono+Psd1, 2 µM, supernatant",<0.30↓ pg/ml
same,IL-6 level,"Mono+Psd1, 2 µM, supernatant",478.09 pg/mL
same,IL-7 level,"Mono+Psd1, 2 µM, supernatant",<0.38↓ pg/ml
same,IL-8 level,"Mono+Psd1, 2 µM, supernatant",6178 pg/mL
same,IL-9 level,"Mono+Psd1, 2 µM, supernatant",3.19 pg/mL
same,IL-10 level,"Mono+Psd1, 2 µM, supernatant",22.94 pg/mL
same,IL-12 (p40) level,"Mono+Psd1, 2 µM, supernatant",19.24 pg/mL
same,IL-12 (p70) level,"Mono+Psd1, 2 µM, supernatant",<1.68↓ pg/ml
same,IL-13 level,"Mono+Psd1, 2 µM, supernatant",11.06 pg/mL
same,IL-15 level,"Mono+Psd1, 2 µM, supernatant",1.44 pg/mL
same,IL-17A level,"Mono+Psd1, 2 µM, supernatant",3.18 pg/mL
same,IL-17E/IL-25 level,"Mono+Psd1, 2 µM, supernatant",<18.85↓ pg/ml
same,IL-17F level,"Mono+Psd1, 2 µM, supernatant",<19.03↓ pg/ml
same,IL-18 level,"Mono+Psd1, 2 µM, supernatant",0.8 pg/mL
same,IL-22 level,"Mono+Psd1, 2 µM, supernatant",10.35 pg/mL
same,IL-27 level,"Mono+Psd1, 2 µM, supernatant",59.83 pg/mL
same,IP-10 level,"Mono+Psd1, 2 µM, supernatant",165.32 pg/mL
same,M-GSF level,"Mono+Psd1, 2 µM, supernatant",29.48 pg/mL
same,MCP-1 level,"Mono+Psd1, 2 µM, supernatant",6617 pg/mL
same,MCP-3 level,"Mono+Psd1, 2 µM, supernatant",371.63 pg/mL
same,MDC level,"Mono+Psd1, 2 µM, supernatant",864.86 pg/mL
same,MIG level,"Mono+Psd1, 2 µM, supernatant",1166 pg/mL
same,MIP-1a level,"Mono+Psd1, 2 µM, supernatant",118.6 pg/mL
same,MIP-1b level,"Mono+Psd1, 2 µM, supernatant",254.87 pg/mL
same,PDGF-AA level,"Mono+Psd1, 2 µM, supernatant",26.77 pg/mL
same,PDGF-AB/BB level,"Mono+Psd1, 2 µM, supernatant",543.88 pg/mL
same,RANTES level,"Mono+Psd1, 2 µM, supernatant",59.35 pg/mL
same,TGF-a level,"Mono+Psd1, 2 µM, supernatant",2.23 pg/mL
same,TNFa level,"Mono+Psd1, 2 µM, supernatant",90.69 pg/mL
same,TNFb level,"Mono+Psd1, 2 µM, supernatant",2.7 pg/mL
same,VEGFa level,"Mono+Psd1, 2 µM, supernatant",4.16 pg/mL
same,sCD40L level,"Mono+Psd1, 2 µM, supernatant",98.67 pg/mL
same,"increase in IL-12, IL-15, IL-27 and MCP-1","monocytes, 2 μM",failed to reach statistical significance
same,"production of TNFα, IL-6, IL-8, IP-10, MCP-3, and G-CSF","monocytes, 2 μM",increased
